These are literature values, as cited in US20080166330A1, “Bacterial Compositions For Prevention Or Treatment Of Atherosclerotic Disorders” (priority 2004, published 2008).

This data set has as its system anti-Chlamydia abzymes. Conditions: general statement of the description, no test details.

As to `CC[C@H]1OC(=O)[C@H](C)[C@@H](O[C@H]2C[C@@](C)(OC)[C@@H](O)[C@H](C)O2)[C@H](C)[C@@H](O[C@@H]2O[C@H](C)C[C@H](N(C)C)[C@H]2O)[C@](C)(O)C[C@@H](C)CN(C)[C@H](C)[C@@H](O)[C@]1(C)O` [azithromycin], the “inhibition of abzyme activity” value is recorded as “inhibit abzyme activity”.
